In patent US20230202981A1, “NOVEL SMALL MOLECULES FOR TARGETED DEGRADATION OF UNTARGETABLE KRAS IN CANCER THERAPY” (Pillai Universal LLC, priority 2020, published 2023):

Columns and labels:
normal cell lines = assay: Toxicity in normal cell lines; assay type: cell-based
[1] = test system: GTP-KRAS in KRAS G12C, G12V, G12D, and G13D mutant cells; assay: RAS activation assay, formation of GTP-bound KRAS in mutant cells; assay type: cell-based; conditions: 24 h
Source text: Actually, mutant KRAS would interfere the balance between GEFs and GAPs, resulting in locking in the active GTP-bound KRAS state and aberrant stimulation of its downstream signaling.

mitosis = assay: Cell cycle analysis of DNA content and phospho-histone H3B immunofluorescence; assay type: cell-based
Source text: The present invention is aimed to invent powerful, therapeutic small molecules that could target mutant KRAS on its active sites. Here we identified a small molecule, compound I, that binds the GTP/GDP-binding pocket of KRAS. For this purpose we studied a strong correlation of measurement among a larger panel of tumor cell lines expressing KRAS mutation and analyses the potency to inhibit the tumor cell growth activated RAS. […] Therefore, compound I may be considered as a potential KRAS inhibitor for treatment of cancer cells carrying KRAS oncogene.

[2] = test system: CRAF, AKT and ERK phosphorylation in KRAS mutant cell lines; assay: Phosphorylation of KRAS downstream signaling pathway; assay type: cell-based; conditions: 48 h, time-dependent
Procedure: Active KRAS stimulates downstream signaling pathways, especially for RAF/MEK/ERK and […] pathway, and then induces cell proliferation. Therefore, to investigate the effect of Compound 1, the phosphorylation levels of CRAF, AKT and ERK in cell lines was examined to monitor the impact of KRAS signaling by treatment with this compound for 48 h.

KRAS-driven lung tumor = assay: Tumor growth in xenograft model; assay type: in vivo
Procedure: The in vivo efficacy of Compound 1 in the context of mutant KRAS was next assessed. Cells were injected into nude mice, and the tumors were allowed to grow to about 60 mm^3 in size and treated daily with Compound 1 for 14-21 days. […] At the day of harvest, the net tumor mass was determined and the average tumor weight of the Compound 1 treatment group was 89% less than the average tumor weight of the control group. […] The effect of Compound 1 treatment were further examined on KRAS-mediated RAF, MEK/ERK, and PI3K/AKT cascades in protein extracts derived from vehicle- and Compound 1-treated tumors.

Oral bioavailability = assay type: in vivo
In vivo toxicity studies = assay: In vivo toxicity studies
Source text: FIG. 20 depicts the results of in vivo toxicity studies of Compound 1. Organ weight, Body weight, liver weight, haematological parameters, serum electrolyte LFT, KFT, Lipid parameters found to be normal range compared with the controlled group.
Tests of blood cells (WBC, RBC, and PLT) for bone marrow, RFT for kidney, and ALT/AST for liver functions all provided results in the normal range.

[3] = test system: RAS-MAPK pathway signaling in KRAS G12C mutant cell lines; assay: Reactivation of RAS signaling in KRAS G12C mutant cell lines; assay type: cell-based
Source text: Densitometry of phosphor-ERK, MEK, AKT, and MYC is normalized to GAPDH. Results represent an average across 8 cell lines.

T-47D = assay: IC50 of Compound 1 on breast cells (MTT assay); assay type: cell-based; conditions: Homo sapiens, T47D; T-47D cells
Source text: (§1) The activity of Compound 1 on various mutated EGFRs, HER2, and HER4 were examined. MTT assays, flow cytometry, and Western blotting were used to examine the effects of Compound 1 on with different genetic characteristics and relevant molecular mechanisms. Nude mouse xenograft models with cells were used to evaluate the in vim anti-tumor activity of Compound 1. […] Compound 1 blocked EGFR phosphorylation, thereby down regulating downstream PI3/AKT and MAPK/ERK signaling pathways and inducing G0/G1 arrest in different cells. […] Due to compromised homologous recombination (HR) repair, BRCA 1-and BRCA 2-mutated tumours accumulate DNA damage and genomic rearrangements conducive of tumour progression.

BT-474 = assay: IC50 of Compound 1 on breast cells (MTT assay); assay type: cell-based; conditions: Homo sapiens; BT-474 cells
Source text: as §1

MCF-7 = assay: IC50 of Compound 1 on breast cells (MTT assay); assay type: cell-based; conditions: Homo sapiens, MCF7; MCF-7 cells
Source text: as §1

ZR-75-1 = assay: IC50 of Compound 1 on breast cells (MTT assay); assay type: cell-based; conditions: Homo sapiens; ZR-75-1 cells
Source text: as §1

HCC1937 = assay: IC50 of Compound 1 on breast cells (MTT assay); assay type: cell-based; conditions: Homo sapiens
Source text: as §1

MDA-MB-468 = assay: IC50 of Compound 1 on breast cells (MTT assay); assay type: cell-based; conditions: Homo sapiens; MDA-MB-468 cells
Source text: as §1

MDA-MB-231 = assay: IC50 of Compound 1 on breast cells (MTT assay); assay type: cell-based; conditions: Homo sapiens; MDA-MB-231 cells
Source text: as §1

BT-549 = assay: IC50 of Compound 1 on breast cells (MTT assay); assay type: cell-based; conditions: Homo sapiens; BT-549 cells
Source text: as §1

MCF-10A = assay: IC50 of Compound 1 on breast cells (MTT assay); assay type: cell-based; conditions: Homo sapiens; MCF-10A cells
Source text: as §1

MDA-MB-453 = assay: IC50 of Compound 1 on breast cells (MTT assay); assay type: cell-based; conditions: Homo sapiens; MDA-MB-453 cells
Source text: as §1

Compound: CCCCc1ncc(C(=O)C2CC=C(C(N)=O)N2)cc1C(=O)OCC (stereo not shown) [Compound 1]
- toxicity in normal cell lines (normal cell lines): minimum toxicity
- formation of GTP-KRAS relative to the total amount of KRAS [1]: selectively inhibit the formation of GTP-KRAS
- mitotic arrest (mitosis): induced mitotic arrest
- levels of phosphorylation of CRAF and AKT [2]: reduced the levels of phosphorylation
- apoptotic cells by cleaved caspase-3 staining in tumors (KRAS-driven lung tumor; immunohistochemistry): prominent increase of apoptotic cells
- cell proliferation by Ki-67 staining in tumors (KRAS-driven lung tumor; immunohistochemistry): large reduction in cell proliferation
- body weight loss or apparent toxicity (KRAS-driven lung tumor; nude mice (n=6) after treatment): no significant body weight loss or apparent toxicity
- tumor growth suppression compared to vehicle treated controls (KRAS-driven lung tumor; nude mice xenograft, suppression starting at day 9): significant suppression from day 10 to day 14
- average tumor weight less than the control group (KRAS-driven lung tumor; nude mice, treated daily for 14-21 days, day of harvest): 89%
- CRAF, ERK, and AKT phosphorylation in tumor protein extracts (KRAS-driven lung tumor; treated vs vehicle tumors): significant suppression
- F (Bioavailability) (Oral bioavailability): F-92% (Bioavailability)
- histopathology of harvested normal tissues (In vivo toxicity studies; after treatment with specific doses): no evidence of normal tissue toxicities
- blood cells, kidney and liver function tests, organ and body weight (In vivo toxicity studies; compared with the controlled group): normal range
- MAPK pathway signaling (phosphor-MEK, phosphor-ERK, phosphor-AKT) ([3]; at 4 hours): suppressed MAPK pathway signaling
- rebound of RAS-MAPK pathway signaling (pMEK, pERK, pAKT, MYC) ([3]; by 72 hours): no rebound activity was observed
- IC50 (T-47D): 5.19 ± 0.28 µM
- IC50 (BT-474): 4.45 ± 0.1 µM
- IC50 (MCF-7): 2.98 ± 0.6 µM
- IC50 (ZR-75-1): 1.69 ± 0.14 µM
- IC50 (HCC1937): 7.52 ± 1.26 µM
- IC50 (MDA-MB-468): 4.21 ± 0.3 µM
- IC50 (MDA-MB-231): 4.89 ± 0.37 µM
- IC50 (BT-549): 3.24 ± 0.08 µM
- IC50 (MCF-10A): 106 ± 3.14 µM
- IC50 (MDA-MB-453): 3.65 ± 0.44 µM
